Where a name gives a salt, the structure may show the parent alone.

Consider 28 compounds from patent US20080058349A1, “New Compounds 318” (Astrazeneca AB, priority 2006, published 2008).

T1 sequence (P56817 22-460): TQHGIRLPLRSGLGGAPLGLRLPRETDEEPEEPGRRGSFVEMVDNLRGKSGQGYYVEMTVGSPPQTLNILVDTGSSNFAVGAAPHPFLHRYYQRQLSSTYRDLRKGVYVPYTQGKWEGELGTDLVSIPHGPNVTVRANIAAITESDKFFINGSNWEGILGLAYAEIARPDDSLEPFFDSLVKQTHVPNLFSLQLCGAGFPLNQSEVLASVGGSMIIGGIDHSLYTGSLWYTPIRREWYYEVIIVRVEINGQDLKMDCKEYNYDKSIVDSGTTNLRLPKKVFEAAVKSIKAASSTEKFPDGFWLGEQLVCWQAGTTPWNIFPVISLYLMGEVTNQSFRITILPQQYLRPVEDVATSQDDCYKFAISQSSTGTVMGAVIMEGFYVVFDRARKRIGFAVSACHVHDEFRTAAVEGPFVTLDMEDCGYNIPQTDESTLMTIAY

One experiment concerns the target T1, human β-Secretase (Homo sapiens, UniProt P56817).
T1 construct: The soluble part of the human β-Secretase (AA 1-AA 460) was cloned; made in house
Nature of the experiment: TR-FRET assay.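 Note: sBACE-Fc from HEK 293 cells, compound preincubated 10 min, then 15 min substrate reaction at RT in darkness, 5% DMSO, DMSO control as 100% and enzyme-free wells as 0%.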 Format: biochemical. As to conditions: soluble human β-Secretase (sBACE-Fc), substrate (Europium)CEVNLDAEFK(Qsy7) 100 nM, pH 4.5. A general note: TR-FRET usually uses a lanthanide donor and a delayed reading to cut background.
What is called IC50 is the concentration that gives 50% inhibition. Low readings indicate greater potency in that assay, high ones weaker potency in that assay. The compound “4-[5-Amino-7-(3′,5′-dichlorobiphenyl-3-yl)-2,7-dihydro-3H-imidazo[1,5-a]imidazol-7-yl]phenyl methanesulfonate 0.25 acetate [Example 61]” gave an IC50 of 146 nM.

The same experiment, now with this note: soluble human β-Secretase (sBACE-Fc), substrate (Europium)[…](Qsy7) 100 nM, pH 4.5.
Turning to `COc1ccc(C2(c3cccc(-c4cc(Cl)cc(Cl)c4)c3)N=C(N)N3CC(O)CN=C32)cc1` (mixture of isomers) [Example 125, 6-Amino-8-(3′,5′-dichlorobiphenyl-3-yl)-8-(4-methoxyphenyl)-2,3,4,8-tetrahydroimidazo[1,5-a]pyrimidin-3-ol], it took 22 nM to reach half-maximal inhibition (IC50).
`COc1ccc(C2(c3cccc(-c4cc(Cl)cc(Cl)c4)c3)N=C(N)N3CC(OC)CN=C32)cc1` (mixture of isomers) [Example 126, 8-(3′,5′-Dichlorobiphenyl-3-yl)-3-methoxy-8-(4-methoxyphenyl)-2,3,4,8-tetrahydroimidazo[1,5-a]pyrimidin-6-amine] yielded an IC50 of 41 nM.
`COc1ccc(C2(c3cccc(-c4cc(Cl)cc(Cl)c4)c3)N=C(N)N3CC(C#N)CN=C32)cc1` (mixture of isomers) [Example 127, 6-Amino-8-(3′,5′-dichlorobiphenyl-3-yl)-8-(4-methoxyphenyl)-2,3,4,8-tetrahydroimidazo[1,5-a]pyrimidine-3-carbonitrile] came in with an IC50 of 27 nM.
Take `COc1ccc(C2(c3cccc(-c4cc(Cl)cc(Cl)c4)c3)N=C(N)N3CC(C(=O)O)CN=C32)cc1` (mixture of isomers) [Example 128, 6-Amino-8-(3′,5′-dichlorobiphenyl-3-yl)-8-(4-methoxyphenyl)-2,3,4,8-tetrahydroimidazo[1,5-a]pyrimidine-3-carboxylic acid]: it took 34 nM to reach half-maximal inhibition (IC50).
Still for that read-out and setting: next, `COc1ccc(C2(c3cccc(-c4cc(Cl)cc(Cl)c4)c3)N=C(N)N3CC(NC(C)=O)CN=C32)cc1` (mixture of isomers) [Example 129, N-[6-amino-8-(3′,5′-dichlorobiphenyl-3-yl)-8-(4-methoxyphenyl)-2,3,4,8-tetrahydroimidazo[1,5-a]pyrimidin-3-yl]acetamide]: 21 nM.
On the same count and under the same terms, next, `COc1ccc(C2(c3cccc(-c4cc(Cl)cc(Cl)c4)c3)N=C(N)N3CC(NS(C)(=O)=O)CN=C32)cc1` (mixture of isomers) [Example 130, N-[6-Amino-8-(3′,5′-dichlorobiphenyl-3-yl)-8-(4-methoxyphenyl)-2,3,4,8-tetrahydroimidazo[1,5-a]pyrimidin-3-yl]methanesulfonamide]: 17 nM; `COc1ccc(C2(c3cccc(-c4cc(Cl)cc(Cl)c4)c3)N=C(N)N3C2=NCC[C@H]3C(=O)O)cc1` (mixture of isomers) [Example 131, (4S)-6-amino-8-(3′,5′-dichlorobiphenyl-3-yl)-8-(4-methoxyphenyl)-2,3,4,8-tetrahydroimidazo[1,5-a]pyrimidine-4-carboxylic acid]: 159 nM; `COc1cccc(-c2cccc(C3(c4ccccc4)N=C(N)N4CCCN=C43)c2)c1` (stereo not shown) [Example 30, 8-(3′-Methoxybiphenyl-3-yl)-8-phenyl-2,3,4,8-tetrahydroimidazo[1,5-a]pyrimidin-6-amine hydrochloride]: 510 nM.
Same read-out and setting: next, `NC1=NC(c2ccccc2)(c2cccc(-c3cccc(Cl)c3)c2)C2=NCCCN12` (stereo not shown) [Example 31, 8-(3′-Chlorobiphenyl-3-yl)-8-phenyl-2,3,4,8-tetrahydroimidazo[1,5-a]pyrimidin-6-amine hydrochloride]: 255 nM; `NC1=NC(c2ccc(OS(=O)(=O)C(F)(F)F)cc2)(c2cccc(-c3cccc(Cl)c3)c2)C2=NCCN12` (stereo not shown) [Example 96, 4-[5-Amino-7-(3′-chlorobiphenyl-3-yl)-2,7-dihydro-3H-imidazo[1,5-a]imidazol-7-yl]phenyl trifluoromethanesulfonate 0.75 acetate]: 227 nM; `NC1=NC(c2ccc(OS(=O)(=O)C(F)(F)F)cc2)(c2cccc(-c3cccc(Cl)c3)c2)C2=NCCCN12` (stereo not shown) [Example 99, 4-[6-Amino-8-(3′-chlorobiphenyl-3-yl)-2,3,4,8-tetrahydroimidazo[1,5-a]pyrimidin-8-yl]phenyl trifluoromethanesulfonate acetate]: 113 nM.
In turn, `COc1ccc(F)c(-c2cccc(C3(c4ccccc4)N=C(N)N4CCCN=C43)c2)c1` (stereo not shown) [Example 100, 8-(2′-Fluoro-5′-methoxybiphenyl-3-yl)-8-phenyl-2,3,4,8-tetrahydroimidazo[1,5-a]pyrimidin-6-amine hydrochloride] returned an IC50 of 305 nM.
Take `NC1=NC(c2ccccc2)(c2cccc(-c3cc(Cl)ccc3F)c2)C2=NCCCN12` (stereo not shown) [Example 101, 8-(5′-Chloro-2′-fluorobiphenyl-3-yl)-8-phenyl-2,3,4,8-tetrahydroimidazo[1,5-a]pyrimidin-6-amine hydrochloride]: half-maximal inhibition (IC50) was put at 378 nM.
Same read-out and setting: next, `NC1=NC(c2ccccc2)(c2cccc(-c3cc(Cl)cc(Cl)c3)c2)C2=NCCCN12` (stereo not shown) [Example 102, 8-(3′,5′-Dichlorobiphenyl-3-yl)-8-phenyl-2,3,4,8-tetrahydroimidazo[1,5-a]pyrimidin-6-amine hydrochloride]: 149 nM; `COc1cc(OS(C)(=O)=O)cc(-c2cccc(C3(c4ccccc4)N=C(N)N4CCCN=C43)c2)c1` (stereo not shown) [Example 103, 3′-(6-Amino-8-phenyl-2,3,4,8-tetrahydroimidazo[1,5-a]pyrimidin-8-yl)-5-methoxybiphenyl-3-yl methanesulfonate hydrochloride]: 727 nM.
The same measure, in the same setting: with `COc1ccc(C2(c3cccc(-c4cc(Cl)cc(Cl)c4)c3)N=C(N)N3CC(S(C)(=O)=O)CN=C32)cc1` (stereo not shown) [Example 124, 8-(3′,5′-Dichlorobiphenyl-3-yl)-8-(4-methoxyphenyl)-3-(methylsulfonyl)-2,3,4,8-tetrahydroimidazo[1,5-a]pyrimidin-6-amine 2.0 acetate] the figure was 39 nM; with `COc1ccc(C2(c3cccc(-c4cc(Cl)cc(Cl)c4)c3)N=C(N)N3CC(F)(F)CN=C32)cc1` (stereo not shown) [Example 132, 8-(3′,5′-Dichlorobiphenyl-3-yl)-3,3-difluoro-8-(4-methoxyphenyl)-2,3,4,8-tetrahydroimidazo[1,5-a]pyrimidin-6-amine 0.75 acetate], 32 nM.
`COc1ccc(C2(c3cccc(-c4cc(Cl)cc(Cl)c4)c3)N=C(N)N3CC(F)CN=C32)cc1` (stereo not shown) [Example 136, 8-(3′,5′-Dichlorobiphenyl-3-yl)-3-fluoro-8-(4-methoxyphenyl)-2,3,4,8-tetrahydroimidazo[1,5-a]pyrimidin-6-amine 1.5 acetate] registered an IC50 of 34 nM.
On to `CS(=O)(=O)Oc1cccc(C2(c3cccc(-c4cc(C(F)(F)F)cc(C(F)(F)F)c4)c3)N=C(N)N3CCCN=C32)c1` (stereo not shown) [Example 176, 3-[6-Amino-8-[3′,5′-bis(trifluoromethyl)biphenyl-3-yl]-2,3,4,8-tetrahydroimidazo[1,5-a]pyrimidin-8-yl]phenyl methanesulfonate], for which the IC50 was found to be 1200 nM.
On the same count and under the same terms, next, `NC1=NC(c2cccc(OS(=O)(=O)C(F)(F)F)c2)(c2cccc(-c3cccc(Cl)c3)c2)C2=NCCCN12` (stereo not shown) [Example 177, 3-[6-Amino-8-(3′-chlorobiphenyl-3-yl)-2,3,4,8-tetrahydroimidazo[1,5-a]pyrimidin-8-yl]phenyl trifluoromethanesulfonate]: 246 nM.
`COc1cccc(C2(c3cccc(-c4cc(Cl)cc(Cl)c4)c3)N=C(N)N3CCCN=C32)c1` (stereo not shown) [Example 178, 8-(3′,5′-Dichlorobiphenyl-3-yl)-8-(3-methoxyphenyl)-2,3,4,8-tetrahydroimidazo[1,5-a]pyrimidin-6-amine] displayed an IC50 of 92 nM.
The same measure, in the same setting: with `CS(=O)(=O)Oc1cccc(C2(c3cccc(-c4cc(Cl)cc(Cl)c4)c3)N=C(N)N3CCCN=C32)c1` (stereo not shown) [Example 181, 3-[6-Amino-8-(3′,5′-dichlorobiphenyl-3-yl)-2,3,4,8-tetrahydroimidazo[1,5-a]pyrimidin-8-yl]phenyl methanesulfonate] the figure was 106 nM; with `CS(=O)(=O)Oc1cccc(C2(c3cccc(-c4cccc(Cl)c4)c3)N=C(N)N3CCCN=C32)c1` (stereo not shown) [Example 182, 3-[6-Amino-8-(3′-chlorobiphenyl-3-yl)-2,3,4,8-tetrahydroimidazo[1,5-a]pyrimidin-8-yl]phenyl methanesulfonate], 285 nM; with `COc1cccc(-c2cccc(C3(c4cccc(OS(C)(=O)=O)c4)N=C(N)N4CCCN=C43)c2)c1` (stereo not shown) [Example 183, 3-[6-Amino-8-(3′-methoxybiphenyl-3-yl)-2,3,4,8-tetrahydroimidazo[1,5-a]pyrimidin-8-yl]phenyl methanesulfonate], 252 nM.
`CCCS(=O)(=O)Oc1cccc(C2(c3cccc(-c4cc(Cl)cc(Cl)c4)c3)N=C(N)N3CCCN=C32)c1` (stereo not shown) [Example 184, 3-[6-Amino-8-(3′,5′-dichlorobiphenyl-3-yl)-2,3,4,8-tetrahydroimidazo[1,5-a]pyrimidin-8-yl]phenyl propane-1-sulfonate] returned an IC50 of 69 nM.
`CCCS(=O)(=O)Oc1cccc(C2(c3cccc(-c4cccc(OC)c4)c3)N=C(N)N3CCCN=C32)c1` (stereo not shown) [Example 185, 3-[6-Amino-8-(3′-methoxybiphenyl-3-yl)-2,3,4,8-tetrahydroimidazo[1,5-a]pyrimidin-8-yl]phenyl propane-1-sulfonate] came in with an IC50 of 106 nM.
Still for that read-out and setting: with `NC1=NC(c2cccc(OS(=O)(=O)C3CC3)c2)(c2cccc(-c3cc(Cl)cc(Cl)c3)c2)C2=NCCCN12` (stereo not shown) [Example 186, 3-[6-Amino-8-(3′,5′-dichlorobiphenyl-3-yl)-2,3,4,8-tetrahydroimidazo[1,5-a]pyrimidin-8-yl]phenyl cyclopropanesulfonate] the figure was 51 nM.
